{"source": "patent US20220400668A1", "about": "“MICROEMULSION COMPOSITIONS OF TOPRAMEZONE” (BASF SE, priority 2018, published 2022)", "origin": "cited, not measured here", "details": "25° C."}
{"smiles": "Cc1c(C(=O)c2cnn(C)c2O)ccc(S(C)(=O)=O)c1C1=NOCC1", "note": "[topramezone, 4-[3-(4,5-dihydro-1,2-oxazol-3-yl)-2-methyl-4-methylsulfonylbenzoyl]-2-methyl-1H-pyrazol-3-one]", "values": [{"measurement": "solubility in water", "result": "about 0.305 g/L"}]}
